From the NIST ThermoML archive (doi:10.1021/je900596d)

Details: for mass density: Vibrating tube method

FC(F)=C(F)C(F)(F)F [hexafluoropropene]
Details	mass density [kg/m3]	vapor or sublimation pressure [kPa]
283.17 K, 9991.1 kPa, Liquid	1439.48	–
283.23 K, Liquid, Closed cell (Static) method	–	459
283.24 K, 3.6 kPa, Fluid (supercritical or subcritical phases)	0.14	–
283.24 K, 4 kPa, Fluid (supercritical or subcritical phases)	0.18	–
283.24 K, 4.5 kPa, Fluid (supercritical or subcritical phases)	0.18	–
283.24 K, 5.1 kPa, Fluid (supercritical or subcritical phases)	0.27	–
283.24 K, 6 kPa, Fluid (supercritical or subcritical phases)	0.3	–
283.24 K, 7.2 kPa, Fluid (supercritical or subcritical phases)	0.31	–
283.24 K, 8.2 kPa, Fluid (supercritical or subcritical phases)	0.4	–
283.24 K, 9.1 kPa, Fluid (supercritical or subcritical phases)	0.47	–
283.24 K, 9.8 kPa, Fluid (supercritical or subcritical phases)	0.52	–
283.24 K, 10.8 kPa, Fluid (supercritical or subcritical phases)	0.56	–
283.24 K, 11.8 kPa, Fluid (supercritical or subcritical phases)	0.65	–
283.24 K, 12.6 kPa, Fluid (supercritical or subcritical phases)	0.7	–
283.24 K, 13.4 kPa, Fluid (supercritical or subcritical phases)	0.85	–
283.24 K, 14.4 kPa, Fluid (supercritical or subcritical phases)	0.85	–
283.24 K, 15.2 kPa, Fluid (supercritical or subcritical phases)	0.87	–
283.24 K, 16 kPa, Fluid (supercritical or subcritical phases)	0.88	–
283.24 K, 17 kPa, Fluid (supercritical or subcritical phases)	0.98	–
283.24 K, 18.1 kPa, Fluid (supercritical or subcritical phases)	1.01	–
283.24 K, 19.2 kPa, Fluid (supercritical or subcritical phases)	1.12	–
283.24 K, 20.3 kPa, Fluid (supercritical or subcritical phases)	1.19	–
283.24 K, 21.5 kPa, Fluid (supercritical or subcritical phases)	1.25	–
283.24 K, 22.7 kPa, Fluid (supercritical or subcritical phases)	1.31	–
283.24 K, 23.9 kPa, Fluid (supercritical or subcritical phases)	1.47	–
283.24 K, 25.1 kPa, Fluid (supercritical or subcritical phases)	1.47	–
283.24 K, 26.3 kPa, Fluid (supercritical or subcritical phases)	1.57	–
283.24 K, 27.6 kPa, Fluid (supercritical or subcritical phases)	1.66	–
283.24 K, 28.8 kPa, Fluid (supercritical or subcritical phases)	1.74	–
283.24 K, 30 kPa, Fluid (supercritical or subcritical phases)	1.8	–
283.24 K, 31.2 kPa, Fluid (supercritical or subcritical phases)	1.87	–
283.24 K, 32.6 kPa, Fluid (supercritical or subcritical phases)	1.92	–
283.24 K, 33.8 kPa, Fluid (supercritical or subcritical phases)	2.04	–
283.24 K, 35.1 kPa, Fluid (supercritical or subcritical phases)	2.16	–
283.24 K, 36.3 kPa, Fluid (supercritical or subcritical phases)	2.23	–
283.24 K, 37.6 kPa, Fluid (supercritical or subcritical phases)	2.25	–
283.24 K, 38.8 kPa, Fluid (supercritical or subcritical phases)	2.33	–
283.24 K, 40.1 kPa, Fluid (supercritical or subcritical phases)	2.39	–
283.24 K, 41.4 kPa, Fluid (supercritical or subcritical phases)	2.51	–
283.24 K, 42.6 kPa, Fluid (supercritical or subcritical phases)	2.65	–
283.24 K, 43.9 kPa, Fluid (supercritical or subcritical phases)	2.74	–
283.24 K, 45.1 kPa, Fluid (supercritical or subcritical phases)	2.76	–
283.24 K, 46.4 kPa, Fluid (supercritical or subcritical phases)	2.84	–
283.24 K, 47.7 kPa, Fluid (supercritical or subcritical phases)	2.93	–
283.24 K, 49 kPa, Fluid (supercritical or subcritical phases)	3.04	–
283.24 K, 50.2 kPa, Fluid (supercritical or subcritical phases)	3.09	–
283.24 K, 52.8 kPa, Fluid (supercritical or subcritical phases)	3.28	–
283.24 K, 55.4 kPa, Fluid (supercritical or subcritical phases)	3.44	–
283.24 K, 58.1 kPa, Fluid (supercritical or subcritical phases)	3.61	–
283.24 K, 60.8 kPa, Fluid (supercritical or subcritical phases)	3.81	–
283.24 K, 63.5 kPa, Fluid (supercritical or subcritical phases)	3.98	–
283.24 K, 69.3 kPa, Fluid (supercritical or subcritical phases)	4.38	–
283.24 K, 72.2 kPa, Fluid (supercritical or subcritical phases)	4.52	–
283.24 K, 75.2 kPa, Fluid (supercritical or subcritical phases)	4.75	–
283.24 K, 78.1 kPa, Fluid (supercritical or subcritical phases)	4.95	–
283.24 K, 81.2 kPa, Fluid (supercritical or subcritical phases)	5.2	–
283.24 K, 84.2 kPa, Fluid (supercritical or subcritical phases)	5.34	–
283.24 K, 87.2 kPa, Fluid (supercritical or subcritical phases)	5.58	–
283.24 K, 90.3 kPa, Fluid (supercritical or subcritical phases)	5.77	–
283.24 K, 93.4 kPa, Fluid (supercritical or subcritical phases)	6	–
283.24 K, 96.5 kPa, Fluid (supercritical or subcritical phases)	6.19	–
283.24 K, 99.6 kPa, Fluid (supercritical or subcritical phases)	6.44	–
283.24 K, 102 kPa, Fluid (supercritical or subcritical phases)	6.55	–
283.24 K, 104.4 kPa, Fluid (supercritical or subcritical phases)	6.69	–
283.24 K, 106.7 kPa, Fluid (supercritical or subcritical phases)	6.88	–
283.24 K, 109.2 kPa, Fluid (supercritical or subcritical phases)	7.05	–
283.24 K, 111.6 kPa, Fluid (supercritical or subcritical phases)	7.23	–
